From the kinase profiling compilation of Christmann-Franck et al. (2016)

Experiments:
Test in all cases: KINOMEscan competition binding
Conditions in all cases: compound 10.0 µM
[1] = target: ALK (human) (UniProt Q9UM73)
[2] = target: CDC2L2 (human) (UniProt Q9UQ88)
[3] = target: CDC42BPG (human) (UniProt Q6DT37)
[4] = target: CDK15 (human) (UniProt Q96Q40)
[5] = target: CDK7 (human) (UniProt P50613)
[6] = target: CIT (human) (UniProt O14578)
[7] = target: CSNK2A1 (human) (UniProt P68400)
[8] = target: CSNK2A2 (human) (UniProt P19784)
[9] = target: EGFR (human) (UniProt P00533)
[10] = tested on: EGFR (human), P00533 [T790M]
[11] = target: ERBB3 (human) (UniProt P21860)
[12] = target: ERBB4 (human) (UniProt Q15303)
[13] = target: FLT1 (human) (UniProt P17948)
[14] = target: JAK1 JH2 pseudokinase (human) (UniProt P23458)
[15] = target: JAK2 JH1 catalytic (human) (UniProt O60674)
[16] = target: LTK (human) (UniProt P29376)
[17] = target: MAP3K11 (human) (UniProt Q16584)
[18] = target: MAPK11 (human) (UniProt Q15759)
[19] = target: MAPK15 (human) (UniProt Q8TD08)
[20] = target: MAPK3 (human) (UniProt P27361)
[21] = target: MAPK6 (human) (UniProt Q16659)
[22] = target: MAPKAPK5 (human) (UniProt Q8IW41)
[23] = target: NEK6 (human) (UniProt Q9HC98)
[24] = target: NEK7 (human) (UniProt Q8TDX7)
[25] = target: NTRK1 (human) (UniProt P04629)
[26] = target: NTRK3 (human) (UniProt Q16288)
[27] = target: PAK1 (human) (UniProt Q13153)
[28] = target: PKMYT1 (human) (UniProt Q99640)
[29] = target: PLK2 (human) (UniProt Q9NYY3)
[30] = target: RPS6KA1 KD1 (human) (UniProt Q15418)
[31] = target: RPS6KA4 KD1 (human) (UniProt O75676)
[32] = target: RPS6KA5 KD2 (human) (UniProt O75582)
[33] = target: STK17B (human) (UniProt O94768)
[34] = target: STK4 (human) (UniProt Q13043)
[35] = target: SYK (human) (UniProt P43405)

Chain of CDC42BPG (human) (Q6DT37 whole entry, looked up): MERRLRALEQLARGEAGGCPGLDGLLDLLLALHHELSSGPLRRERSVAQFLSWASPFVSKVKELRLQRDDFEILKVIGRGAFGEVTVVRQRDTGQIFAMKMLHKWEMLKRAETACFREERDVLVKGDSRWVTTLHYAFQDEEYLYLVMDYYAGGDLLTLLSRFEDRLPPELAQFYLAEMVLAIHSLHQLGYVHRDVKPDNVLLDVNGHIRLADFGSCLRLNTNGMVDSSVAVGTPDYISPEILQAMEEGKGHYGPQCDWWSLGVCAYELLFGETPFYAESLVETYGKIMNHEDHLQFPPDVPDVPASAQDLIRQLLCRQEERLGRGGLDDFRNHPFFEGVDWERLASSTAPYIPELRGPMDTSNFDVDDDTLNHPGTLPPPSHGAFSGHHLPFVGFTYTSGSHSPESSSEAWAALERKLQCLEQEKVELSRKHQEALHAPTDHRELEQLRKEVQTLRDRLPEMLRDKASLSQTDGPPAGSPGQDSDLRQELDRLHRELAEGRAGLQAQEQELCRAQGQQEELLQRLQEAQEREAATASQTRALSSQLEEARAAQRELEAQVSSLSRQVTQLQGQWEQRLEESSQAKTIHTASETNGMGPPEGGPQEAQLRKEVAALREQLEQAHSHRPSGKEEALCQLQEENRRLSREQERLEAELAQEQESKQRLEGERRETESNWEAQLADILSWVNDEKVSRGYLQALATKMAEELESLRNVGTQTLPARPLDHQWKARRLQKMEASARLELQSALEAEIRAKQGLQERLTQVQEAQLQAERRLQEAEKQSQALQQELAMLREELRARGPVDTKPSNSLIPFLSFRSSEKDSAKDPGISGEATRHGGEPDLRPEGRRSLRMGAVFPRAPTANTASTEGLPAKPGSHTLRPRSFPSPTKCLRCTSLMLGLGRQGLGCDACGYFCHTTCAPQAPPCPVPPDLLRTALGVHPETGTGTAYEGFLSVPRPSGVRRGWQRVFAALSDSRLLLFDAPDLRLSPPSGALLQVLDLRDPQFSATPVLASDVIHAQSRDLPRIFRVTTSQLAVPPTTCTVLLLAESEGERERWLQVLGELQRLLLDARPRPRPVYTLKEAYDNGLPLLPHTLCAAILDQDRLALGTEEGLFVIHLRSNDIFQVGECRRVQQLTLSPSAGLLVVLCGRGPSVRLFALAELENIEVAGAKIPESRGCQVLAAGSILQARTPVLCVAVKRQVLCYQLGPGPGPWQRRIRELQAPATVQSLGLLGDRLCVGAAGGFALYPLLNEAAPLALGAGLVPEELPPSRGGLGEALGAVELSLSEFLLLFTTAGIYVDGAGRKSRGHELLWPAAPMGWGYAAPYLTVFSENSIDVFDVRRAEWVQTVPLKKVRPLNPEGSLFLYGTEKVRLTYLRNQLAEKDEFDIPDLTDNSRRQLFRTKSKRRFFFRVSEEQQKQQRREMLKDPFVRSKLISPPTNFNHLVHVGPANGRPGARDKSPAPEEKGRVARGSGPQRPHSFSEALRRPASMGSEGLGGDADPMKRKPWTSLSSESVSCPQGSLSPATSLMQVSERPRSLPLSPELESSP
Chain of NTRK3 (human) (Q16288 whole entry, looked up): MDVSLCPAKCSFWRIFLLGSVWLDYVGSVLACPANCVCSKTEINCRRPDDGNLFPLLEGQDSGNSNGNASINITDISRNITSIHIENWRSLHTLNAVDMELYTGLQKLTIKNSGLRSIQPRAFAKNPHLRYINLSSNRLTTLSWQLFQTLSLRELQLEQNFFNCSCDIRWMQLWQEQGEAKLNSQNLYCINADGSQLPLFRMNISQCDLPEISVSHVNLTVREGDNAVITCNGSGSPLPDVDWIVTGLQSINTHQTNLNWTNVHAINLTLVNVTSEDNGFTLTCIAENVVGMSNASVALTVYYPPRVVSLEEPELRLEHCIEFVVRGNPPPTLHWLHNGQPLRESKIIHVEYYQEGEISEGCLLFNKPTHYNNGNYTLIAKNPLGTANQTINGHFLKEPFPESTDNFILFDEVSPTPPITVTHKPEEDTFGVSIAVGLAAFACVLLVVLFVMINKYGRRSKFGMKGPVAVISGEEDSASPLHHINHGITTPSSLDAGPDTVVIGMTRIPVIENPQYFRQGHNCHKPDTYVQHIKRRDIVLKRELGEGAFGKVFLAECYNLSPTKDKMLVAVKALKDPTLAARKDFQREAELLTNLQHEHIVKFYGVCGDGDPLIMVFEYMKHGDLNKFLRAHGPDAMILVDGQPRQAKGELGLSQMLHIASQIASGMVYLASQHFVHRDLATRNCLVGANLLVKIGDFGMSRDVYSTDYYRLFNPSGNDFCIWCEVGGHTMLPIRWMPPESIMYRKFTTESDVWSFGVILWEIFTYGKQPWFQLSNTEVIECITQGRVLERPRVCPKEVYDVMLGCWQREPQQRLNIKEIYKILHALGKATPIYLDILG
Chain of NEK7 (human) (Q8TDX7 whole entry, looked up): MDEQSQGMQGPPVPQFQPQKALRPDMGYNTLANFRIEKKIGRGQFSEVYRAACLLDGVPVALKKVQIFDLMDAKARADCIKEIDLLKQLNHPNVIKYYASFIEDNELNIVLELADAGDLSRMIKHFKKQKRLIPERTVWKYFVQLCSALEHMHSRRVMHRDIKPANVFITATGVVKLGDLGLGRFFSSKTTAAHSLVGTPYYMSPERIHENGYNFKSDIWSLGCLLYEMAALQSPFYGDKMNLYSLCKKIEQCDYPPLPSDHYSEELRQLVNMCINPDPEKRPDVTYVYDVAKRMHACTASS
Chain of PAK1 (human) (Q13153 whole entry, looked up): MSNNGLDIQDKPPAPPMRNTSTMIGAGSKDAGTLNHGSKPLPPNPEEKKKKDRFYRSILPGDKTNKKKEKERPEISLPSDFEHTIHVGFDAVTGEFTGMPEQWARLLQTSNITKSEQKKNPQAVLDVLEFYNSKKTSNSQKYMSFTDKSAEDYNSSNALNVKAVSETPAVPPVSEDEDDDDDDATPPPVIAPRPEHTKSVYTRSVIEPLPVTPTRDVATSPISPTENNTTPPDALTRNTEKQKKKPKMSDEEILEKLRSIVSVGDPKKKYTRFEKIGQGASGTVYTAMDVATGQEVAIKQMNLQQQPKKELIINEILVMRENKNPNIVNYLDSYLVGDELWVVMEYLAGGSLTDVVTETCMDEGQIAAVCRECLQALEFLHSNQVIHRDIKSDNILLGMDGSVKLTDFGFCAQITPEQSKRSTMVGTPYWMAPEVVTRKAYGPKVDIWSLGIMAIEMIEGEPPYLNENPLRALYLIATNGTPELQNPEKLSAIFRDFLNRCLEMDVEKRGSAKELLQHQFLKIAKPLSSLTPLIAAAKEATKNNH
Chain of MAPK11 (human) (Q15759 whole entry, looked up): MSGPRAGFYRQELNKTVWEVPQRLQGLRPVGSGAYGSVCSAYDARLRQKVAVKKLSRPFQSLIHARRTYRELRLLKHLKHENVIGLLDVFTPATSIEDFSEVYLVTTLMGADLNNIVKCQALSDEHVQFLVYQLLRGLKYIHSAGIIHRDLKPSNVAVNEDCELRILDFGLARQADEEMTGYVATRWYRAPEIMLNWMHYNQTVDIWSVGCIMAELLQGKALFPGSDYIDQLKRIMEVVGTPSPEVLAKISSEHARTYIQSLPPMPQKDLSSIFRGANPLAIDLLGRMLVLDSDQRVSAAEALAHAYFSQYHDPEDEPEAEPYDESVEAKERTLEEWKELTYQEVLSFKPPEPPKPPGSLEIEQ
Chain of JAK2 JH1 catalytic (human) (O60674 whole entry, looked up): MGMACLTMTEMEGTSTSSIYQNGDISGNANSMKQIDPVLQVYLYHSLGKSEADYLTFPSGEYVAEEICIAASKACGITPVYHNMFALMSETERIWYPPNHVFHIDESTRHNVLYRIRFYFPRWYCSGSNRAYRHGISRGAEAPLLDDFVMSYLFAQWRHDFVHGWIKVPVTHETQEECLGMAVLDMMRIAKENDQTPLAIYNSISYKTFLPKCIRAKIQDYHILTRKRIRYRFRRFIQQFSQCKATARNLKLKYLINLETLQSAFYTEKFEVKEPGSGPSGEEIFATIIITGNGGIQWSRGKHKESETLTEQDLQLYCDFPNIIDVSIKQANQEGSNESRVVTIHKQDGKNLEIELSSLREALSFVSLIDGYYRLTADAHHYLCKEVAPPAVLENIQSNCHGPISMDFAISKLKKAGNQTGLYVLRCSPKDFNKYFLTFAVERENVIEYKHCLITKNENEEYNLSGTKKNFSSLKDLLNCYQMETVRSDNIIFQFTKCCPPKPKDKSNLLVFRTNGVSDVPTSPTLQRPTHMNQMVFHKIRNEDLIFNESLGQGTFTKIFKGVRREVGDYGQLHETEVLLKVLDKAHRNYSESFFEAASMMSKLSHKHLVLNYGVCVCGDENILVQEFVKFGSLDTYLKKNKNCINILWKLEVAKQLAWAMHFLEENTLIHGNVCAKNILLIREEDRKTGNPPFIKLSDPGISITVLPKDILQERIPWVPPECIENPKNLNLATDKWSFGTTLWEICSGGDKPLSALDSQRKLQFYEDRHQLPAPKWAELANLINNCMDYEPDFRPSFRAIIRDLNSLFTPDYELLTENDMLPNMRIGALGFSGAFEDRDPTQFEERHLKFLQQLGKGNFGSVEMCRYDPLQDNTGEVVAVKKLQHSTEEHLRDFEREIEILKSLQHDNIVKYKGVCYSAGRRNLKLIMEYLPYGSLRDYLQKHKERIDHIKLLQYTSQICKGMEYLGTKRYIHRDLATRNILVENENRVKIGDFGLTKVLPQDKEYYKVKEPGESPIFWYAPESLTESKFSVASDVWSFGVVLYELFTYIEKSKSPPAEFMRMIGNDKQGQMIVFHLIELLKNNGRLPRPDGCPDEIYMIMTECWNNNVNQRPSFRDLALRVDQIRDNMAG
Chain of NEK6 (human) (Q9HC98 whole entry, looked up): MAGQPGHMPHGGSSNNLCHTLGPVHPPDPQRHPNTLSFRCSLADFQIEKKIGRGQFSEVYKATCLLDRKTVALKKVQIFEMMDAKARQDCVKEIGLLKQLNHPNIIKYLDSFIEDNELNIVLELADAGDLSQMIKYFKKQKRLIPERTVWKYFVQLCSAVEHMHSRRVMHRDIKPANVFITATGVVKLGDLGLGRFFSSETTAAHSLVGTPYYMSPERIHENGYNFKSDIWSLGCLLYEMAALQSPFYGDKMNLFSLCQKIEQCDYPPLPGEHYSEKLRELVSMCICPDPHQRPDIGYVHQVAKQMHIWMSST

Compound	kinase still bound, per cent of control [1]	kinase still bound, per cent of control [2]	kinase still bound, per cent of control [3]	kinase still bound, per cent of control [4]	kinase still bound, per cent of control [5]	kinase still bound, per cent of control [6]	kinase still bound, per cent of control [7]	kinase still bound, per cent of control [8]	kinase still bound, per cent of control [9]	kinase still bound, per cent of control [10]	kinase still bound, per cent of control [11]	kinase still bound, per cent of control [12]	kinase still bound, per cent of control [13]	kinase still bound, per cent of control [14]	kinase still bound, per cent of control [15]	kinase still bound, per cent of control [16]	kinase still bound, per cent of control [17]	kinase still bound, per cent of control [18]	kinase still bound, per cent of control [19]	kinase still bound, per cent of control [20]	further results
COc1cc(C(=O)N2CCC(N3CCN(C)CC3)CC2)ccc1Nc1ncc2c(n1)N(C)c1ccccc1C(=O)N2C	13%	82%	100%	100%	86%	99%	100%	93%	84%	88%	100%	100%	100%	92%	70%	32%	100%	60%	100%	100%	kinase still bound, per cent of control [21]: 100%; kinase still bound, per cent of control [22]: 97%; kinase still bound, per cent of control [23]: 76%; kinase still bound, per cent of control [24]: 100%; kinase still bound, per cent of control [25]: 69%; kinase still bound, per cent of control [26]: 100%; kinase still bound, per cent of control [27]: 95%; kinase still bound, per cent of control [28]: 80%; kinase still bound, per cent of control [29]: 100%; kinase still bound, per cent of control [30]: 73%; kinase still bound, per cent of control [31]: 100%; kinase still bound, per cent of control [32]: 92%; kinase still bound, per cent of control [33]: 93%; kinase still bound, per cent of control [34]: 100%; kinase still bound, per cent of control [35]: 100%
C=CC(=O)Nc1cc(-n2c(=O)ccc3cnc4ccc(-c5cn[nH]c5)cc4c32)ccc1C	100%	100%	100%	49%	3.8%	42%	4.6%	1.2%	30%	1.4%	94%	22%	100%	34%	16%	100%	100%	89%	24%	100%	kinase still bound, per cent of control [21]: 95%; kinase still bound, per cent of control [22]: 78%; kinase still bound, per cent of control [23]: 92%; kinase still bound, per cent of control [24]: 100%; kinase still bound, per cent of control [25]: 65%; kinase still bound, per cent of control [26]: 93%; kinase still bound, per cent of control [27]: 100%; kinase still bound, per cent of control [28]: 81%; kinase still bound, per cent of control [29]: 89%; kinase still bound, per cent of control [30]: 87%; kinase still bound, per cent of control [31]: 100%; kinase still bound, per cent of control [32]: 75%; kinase still bound, per cent of control [33]: 100%; kinase still bound, per cent of control [34]: 83%; kinase still bound, per cent of control [35]: 100%
CN(C)C/C=C/C(=O)Nc1ccc(C(=O)Nc2cccc(Nc3nccc(-c4cccnc4)n3)c2)cc1	100%	100%	76%	100%	3.2%	38%	12%	5.2%	100%	65%	57%	100%	46%	0.6%	8.4%	100%	100%	88%	23%	100%	kinase still bound, per cent of control [21]: 7.4%; kinase still bound, per cent of control [22]: 100%; kinase still bound, per cent of control [23]: 2.8%; kinase still bound, per cent of control [24]: 9.8%; kinase still bound, per cent of control [25]: 60%; kinase still bound, per cent of control [26]: 65%; kinase still bound, per cent of control [27]: 90%; kinase still bound, per cent of control [28]: 100%; kinase still bound, per cent of control [29]: 81%; kinase still bound, per cent of control [30]: 91%; kinase still bound, per cent of control [31]: 100%; kinase still bound, per cent of control [32]: 98%; kinase still bound, per cent of control [33]: 19%; kinase still bound, per cent of control [34]: 100%; kinase still bound, per cent of control [35]: 23%
O=C(Nc1cccc(Nc2ncc(Br)c(NCCc3cnc[nH]3)n2)c1)N1CCCC1	14%	52%	49%	25%	0.55%	0.75%	0.3%	0%	47%	2%	41%	56%	0.6%	0.2%	0%	66%	0.75%	90%	1.8%	76%	kinase still bound, per cent of control [21]: 5%; kinase still bound, per cent of control [22]: 28%; kinase still bound, per cent of control [23]: 0.5%; kinase still bound, per cent of control [24]: 0.5%; kinase still bound, per cent of control [25]: 0.2%; kinase still bound, per cent of control [26]: 2.6%; kinase still bound, per cent of control [27]: 36%; kinase still bound, per cent of control [28]: 100%; kinase still bound, per cent of control [29]: 11%; kinase still bound, per cent of control [30]: 4.3%; kinase still bound, per cent of control [31]: 2.1%; kinase still bound, per cent of control [32]: 31%; kinase still bound, per cent of control [33]: 2.4%; kinase still bound, per cent of control [34]: 12%; kinase still bound, per cent of control [35]: 0.95%
